Reference: paper doi:10.1101/2023.02.27.530254, “Large library docking for cannabinoid-1 receptor agonists with reduced side effects” (bioRxiv, 2024)
pEC50, pKi: −log10 of the molar value. Like-named read-outs stand apart in the source and are kept apart here.

Experiments:
[1] = molecular target: T1, CB1 (Rattus norvegicus, UniProt P20272); assay: Radioligand competition binding with [3H]-CP-55,940, rat brain membranes; conditions: for % [3H]-CP-55,940 displacement (mean) from single point screen: screens at 10 μM (white cells), 1 μM (orange) or 300 nM (green), cell colours not visible; for Emax: read-out: rCB1 binding Emax [SEM]
T1 construct: membrane preparations from rat brain (source of CB1); tissue Bioivt RAT00BRAINMZN; host or cells: rat brain
T1 sequence (P20272 whole entry): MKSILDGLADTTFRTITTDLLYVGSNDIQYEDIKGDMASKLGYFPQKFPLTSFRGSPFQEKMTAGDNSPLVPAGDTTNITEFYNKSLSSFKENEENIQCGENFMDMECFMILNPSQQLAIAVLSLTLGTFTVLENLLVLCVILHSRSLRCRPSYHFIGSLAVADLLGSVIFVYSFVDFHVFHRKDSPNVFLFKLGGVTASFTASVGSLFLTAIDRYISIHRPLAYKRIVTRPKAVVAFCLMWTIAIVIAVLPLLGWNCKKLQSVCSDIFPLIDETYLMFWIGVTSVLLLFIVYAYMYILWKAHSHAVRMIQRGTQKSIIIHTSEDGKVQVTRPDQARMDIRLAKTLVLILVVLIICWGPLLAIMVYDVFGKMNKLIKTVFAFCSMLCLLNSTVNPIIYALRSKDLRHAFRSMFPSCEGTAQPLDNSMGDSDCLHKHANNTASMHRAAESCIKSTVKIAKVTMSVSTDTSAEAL
Protocol: The results were analyzed using nonlinear regression to determine the IC50 and Ki values for each ligand (Prism by GraphPad Software, Inc., San Diego, CA). The Ki values are expressed as the mean of two to three experiments each performed in triplicate.

[2] = molecular target: hCB1 (Homo sapiens, UniProt P21554); assay: bioSens-All ebBRET effector biosensor signaling profiling, HEK293; assay type: cell-based; parameters: host or cells: HEK293 (HEK293SL clone), transient
Chain of hCB1 (P21554 whole entry, the tested form may be a part): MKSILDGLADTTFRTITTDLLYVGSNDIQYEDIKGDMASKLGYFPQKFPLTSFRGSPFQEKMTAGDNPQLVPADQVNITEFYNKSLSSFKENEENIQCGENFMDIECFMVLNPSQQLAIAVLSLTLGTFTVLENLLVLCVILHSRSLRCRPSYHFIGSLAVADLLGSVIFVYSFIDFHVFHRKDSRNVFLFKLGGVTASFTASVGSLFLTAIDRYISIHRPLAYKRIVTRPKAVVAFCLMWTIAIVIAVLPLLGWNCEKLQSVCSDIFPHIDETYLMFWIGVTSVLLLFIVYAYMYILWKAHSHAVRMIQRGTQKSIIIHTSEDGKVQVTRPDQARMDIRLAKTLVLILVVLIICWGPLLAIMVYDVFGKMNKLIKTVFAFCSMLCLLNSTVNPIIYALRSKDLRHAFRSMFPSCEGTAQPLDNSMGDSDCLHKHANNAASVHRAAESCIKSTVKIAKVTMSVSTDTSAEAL
Protocol: (§1) ebBRET-based effector membrane translocation biosensor assays were conducted at Domain Therapeutics NA Inc. (Montreal, QC, Canada) as previously described. […] HEK293 cells were maintained in Dulbecco’s Modified Eagle Medium (DMEM) (Wisent) supplemented with 1% penicillin- streptomycin (Wisent) and 10% (or 2 % for transfection) fetal bovine serum (Wisent) at 37°C with 5% CO2. All biosensor-coding plasmids and related information are the property of Domain Therapeutics NA Inc. The total amount of transfected DNA was adjusted and kept constant at 1 μg per mL of cell culture to be transfected using salmon sperm DNA (Invitrogen) as ‘carrier’ DNA, PEI (polyethylenimine 25 kDa linear, PolyScience) and DNA (3:1 ml PEI:mg DNA ratio) were first diluted separately in 150 mM NaCl then mixed and incubated for at least 20 minutes at room temperature to allow for the formation of DNA/PEI complexes. During the incubation, HEK293 cells were detached, counted, and re-suspended in maintenance medium to a 350,000 cells per mL density. At the end of the incubation period, the DNA/PEI mixture was added to the cells. Cells were finally distributed in 96-well plates (White Opaque 96-well /Microplates, Greiner) at a density of 35,000 cells per well. Forty-eight hours post-transfection, medium was aspirated and replaced with 100 μl of Hank’s Balanced Salt Solution buffer (HBSS) (Wisent) per well using 450-Select TS Biotek plate washer. After 60 min incubation in this medium, 10 μL of 10 μM e-Coelenterazine Prolume Purple (Methoxy e-CTZ) (Nanolight) was added to each well for a final concentration of 1 μM immediately followed by addition of increasing concentrations of the test compounds to each well using the HP D300 digital dispenser (Tecan). All compounds were assayed at 22 concentrations with each biosensor after a 10-minute room temperature incubation period. […] All BRET ratios were standardized using the universal BRET (uBRET) equation: uBRET=BRETratio-A/B-A×10,000 where A is the BRET ratio obtained from transfection of negative control and B is the BRET ratio obtained from transfection of positive control. […] The data were analyzed using the four-parameter logistic non-linear regression model in GraphPad Prism 9.1 and data were presented as means ± CIs of 1–4 independent experiments.
(§2) The SEM was calculated for the logEmax/EC50 ratios using the following equation: SEM=σ/n where σ is the standard deviation, and n is the number of experiments.

[3] = test system: C56BL/6 mice; assay: Catalepsy test (vertical wire mesh); assay type: in vivo, mouse; conditions: non-cannabinoid positive control
Protocol: Thirty and 60 minutes after an i.p. injection of the compounds, mice were placed on a vertical wire mesh and the latency to move all four paws was recorded.

[4] = molecular target: hCB2 (Homo sapiens, UniProt P34972); assay: bioSens-All ebBRET effector biosensor signaling profiling, HEK293; assay type: cell-based; parameters: host or cells: HEK293 (HEK293SL clone), transient
Chain of hCB2 (P34972 whole entry): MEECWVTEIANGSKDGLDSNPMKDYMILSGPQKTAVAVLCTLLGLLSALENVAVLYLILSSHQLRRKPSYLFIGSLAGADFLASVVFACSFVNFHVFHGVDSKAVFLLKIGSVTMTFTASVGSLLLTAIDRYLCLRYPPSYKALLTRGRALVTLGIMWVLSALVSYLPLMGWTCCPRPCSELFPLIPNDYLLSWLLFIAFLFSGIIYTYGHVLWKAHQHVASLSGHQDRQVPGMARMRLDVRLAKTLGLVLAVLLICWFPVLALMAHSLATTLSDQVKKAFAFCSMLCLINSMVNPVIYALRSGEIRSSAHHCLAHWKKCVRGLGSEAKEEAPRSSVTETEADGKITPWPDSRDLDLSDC
Protocol: as §1, §2

[5] = maximal radioligand displacement
[6] = rCB1 binding Ki [95% CI], [3H]-CP-55,940 competition, rat brain membranes
[7] = HEK293, read-out: hCB1 Gi1 Emax [95% CI]
[8] = HEK293, read-out: hCB1 GoB Emax [95% CI]
[9] = HEK293, read-out: hCB1 Gz Emax [95% CI]
[10] = GoB sensor, normalized to CP-55,940
[11] = Gz sensor, normalized to CP-55,940

**Q.** `COC(=O)[C@@H]1[C@@H]2CCC[C@@H]2CN1C(=O)c1nn(-c2cccc(C(F)(F)F)c2)c2c1CCC2` [10_17] was tested. Which “% [3H]-CP-55,940 displacement (mean) from single point screen” value [1] did it give?
**A.** 98.24%

**Q.** How did the Emax [1, 5] turn out when `N#Cc1cccc(OCc2ccoc2C(=O)OCC2CSc3ccccc3O2)c1` (stereo not drawn) [compound 5424] was run?
**A.** 104%

**Q.** And the pKi [1, 6]?
**A.** 6.06

**Q.** And the “% [3H]-CP-55,940 displacement (mean) from single point screen” value ([1]; listed as 7019_31)?
**A.** 80.66%

**Q.** What does the source list for `Cn1nc(-c2nnc(C(C)(C)Oc3ccc(C(F)(F)F)cc3)o2)c2ccccc2c1=O` [‘2153]?
**A.** Emax [2, 7]: 89%; Emax [2, 8]: 109%; pEC50 ([2]; hCB1 Gi1 EC50 [95% CI]): 6.00; pEC50 ([2]; hCB1 GoB EC50 [95% CI]): 5.69; Emax [1, 5]: 82.6%; pKi [1, 6]: 6.79

**Q.** For `O=C(CCCN1CCC(O)(c2ccc(Cl)cc2)CC1)c1ccc(F)cc1` [haloperidol, reference compound], which catalepsy [3] is on record?
**A.** dramatic catalepsy

**Q.** Which Emax [2, 7] does the source give for `CC(=O)C(c1cccs1)N(C)C(=O)c1cc(C)n(-c2cccc(C(F)(F)F)c2)n1` (stereo not drawn) [‘6829] here?
**A.** 68%

**Q.** What about the Emax [2, 8] of the same molecule?
**A.** 49%

**Q.** And the Emax [2, 9]?
**A.** 70%

**Q.** And the pEC50 ([2]; hCB1 Gi1 EC50 [95% CI])?
**A.** 5.39

**Q.** And the pEC50 ([2]; hCB1 GoB EC50 [95% CI])?
**A.** 6.00

**Q.** What about the pEC50 ([2]; hCB1 Gz EC50 [95% CI]) of the same molecule?
**A.** 5.87

**Q.** And the Emax [1, 5]?
**A.** 106%

**Q.** What about the pKi [1, 6] of the same molecule?
**A.** 5.98

**Q.** What does the source list for `Cc1cc(C(=O)NC(C)(c2ccccc2)c2ccco2)nn1-c1cccc(C(F)(F)F)c1` (stereo not drawn) [‘5806]?
**A.** Emax [1, 5]: 100%; pKi [1, 6]: 8.10

**Q.** `Cc1nc(CC2CC2)oc1-c1nc(Cc2cc3c(cc2Br)OCO3)no1` [‘7019] was tested. Which pKi [1, 6] did it give?
**A.** 5.39

**Q.** Which “hCB2 Gi1 pEC50 [95% CI]” value ([4]; Gi1 sensor) does the source give for `CCCCC/C=C\C/C=C\C/C=C\C/C=C\CCCC(=O)OC(CO)CO` [2-AG, reference compound] here?
**A.** 6.66 [6.6 – 6.7]

**Q.** And the “hCB2 Gi2 pEC50 [95% CI]” value ([4]; Gi2 sensor)?
**A.** 7.0 [6.9 – 7.2]

**Q.** What about the “hCB2 Gi2 Emax [95% CI]” value ([4]; Gi2 sensor, normalized to CP-55,940) of the same molecule?
**A.** 78 [74 – 84]

**Q.** What about the “hCB2 GoB pEC50 [95% CI]” value ([4]; GoB sensor) of the same molecule?
**A.** 6.4 [6.3 – 6.5]

**Q.** And the “hCB2 GoB Emax [95% CI]” value [4, 10]?
**A.** 101 [98 – 104]

**Q.** What about the “hCB2 Gz pEC50 [95% CI]” value ([4]; Gz sensor) of the same molecule?
**A.** 5.7 [4.1 – 6.0]

**Q.** And the “hCB2 Gz Emax [95% CI]” value [4, 11]?
**A.** 96 [76 – 233]

**Q.** What about the pEC50 ([4]; read-out: hCB2 Barr2 + GRK2 EC50 [95% CI], ßarrestin-2 sensor with GRK2) of the same molecule?
**A.** 5.73

**Q.** And the pEC50 ([4]; read-out: hCB2 Gi1 EC50 [95% CI], Gi1 sensor)?
**A.** 6.66

**Q.** What about the pEC50 ([4]; read-out: hCB2 Gi2 EC50 [95% CI], Gi2 sensor) of the same molecule?
**A.** 7.02

**Q.** And the pEC50 ([4]; read-out: hCB2 GoB EC50 [95% CI], GoB sensor)?
**A.** 6.40

**Q.** What about the pEC50 ([4]; read-out: hCB2 Gz EC50 [95% CI], Gz sensor) of the same molecule?
**A.** 5.67

**Q.** And the “hCB2 Barr2 + GRK2 pEC50 [95% CI]” value ([4]; ßarrestin-2 sensor with GRK2)?
**A.** 5.7 [5.4 – 6.0]

**Q.** And the “hCB2 Barr2 + GRK2 Emax [95% CI]” value ([4]; ßarrestin-2 sensor with GRK2, normalized to CP-55,940)?
**A.** 118 [104 – 140]

**Q.** For `Cc1cc(C(=O)N2CC3(CCC3)[C@H]2[C@H]2CCCO2)nn1-c1cccc(C(F)(F)F)c1` [‘3737b], which Emax [2, 7] is on record?
**A.** 89%

**Q.** And the Emax [2, 8]?
**A.** 152%

**Q.** And the Emax [2, 9]?
**A.** 231%

**Q.** What about the pEC50 ([2]; hCB1 Gi1 EC50 [95% CI]) of the same molecule?
**A.** 5.52

**Q.** And the pEC50 ([2]; hCB1 GoB EC50 [95% CI])?
**A.** 4.70

**Q.** What about the pEC50 ([2]; hCB1 Gz EC50 [95% CI]) of the same molecule?
**A.** 4.51

**Q.** With `CCCCCCC(C)(C)c1cc(O)c2c(c1)OC(C)(C)C1CCC(=O)CC21` (stereo not drawn) [Nabilone, reference compound] as the molecule, how does the Emax [1, 5] read?
**A.** 81%

**Q.** And the pKi ([1]; rCB1 binding pKi [95% CI], [3H]-CP-55,940 competition, rat brain membranes)?
**A.** 8.60

**Q.** What does the source list for `COC(=O)[C@@H]1[C@@H]2CC[C@@H]2CN1C(=O)c1cc(C)n(-c2cccc(C(F)(F)F)c2)n1` [‘6448]?
**A.** hCB1 Gi1 pEC50 [95% CI] ([2]; Gi1 sensor): 6.5 [6.4 – 6.5]; hCB1 Gi1 Emax [95% CI] ([2]; Gi1 sensor, normalized to CP-55,940): 87 [86 – 88]; hCB1 GoB pEC50 [95% CI] ([2]; GoB sensor): 6.5 [6.4 – 6.6]; hCB1 GoB Emax [95% CI] [2, 10]: 90 [87 – 91]; hCB1 Gz pEC50 [95% CI] ([2]; Gz sensor): 6.1 [5.9 – 6.4]; hCB1 Gz Emax [95% CI] [2, 11]: 151 [130 –172]; pEC50 ([2]; read-out: hCB1 Gi1 EC50 [95% CI], Gi1 sensor): 6.46; pEC50 ([2]; read-out: hCB1 GoB EC50 [95% CI], GoB sensor): 6.51; pEC50 ([2]; read-out: hCB1 Gz EC50 [95% CI], Gz sensor): 6.14; rCB1 binding pKi [95% CI] ([1]; [3H]-CP-55,940 competition, rat brain membranes): 6.1 [5.9 – 6.3]; rCB1 binding Emax [SEM] [1, 5]: 103%; pKi ([1]; read-out: rCB1 binding Ki [95% CI], [3H]-CP-55,940 competition, rat brain membranes): 6.06

**Q.** How did the Emax [1, 5] turn out when `Cc1cc(C(=O)NC(C)(c2ccco2)c2ccco2)nn1-c1cccc(C(F)(F)F)c1` [‘4936] was run?
**A.** 88%

**Q.** What about the pKi [1, 6] of the same molecule?
**A.** 8.12

**Q.** Which results are given for `CC(=O)C(C)(NC(=O)c1cc(C)n(-c2cccc(C(F)(F)F)c2)n1)c1cccs1` (stereo not drawn) [‘4156]?
**A.** Emax [1, 5]: 91%; pKi [1, 6]: 7.87
